Structures can show the parent of a compound that is named as a salt.
Target: T1, Farnesyltransferase (FTase) (Bos taurus, UniProt P29702+P49355)
T1 construct: precipitation from a beef brain homogenate; from tissue; host or cells: bovine brain
Assay: Farnesyltransferase inhibition (scintillation proximity assay, [3H]-FPP / biotin-K-ras peptide)
Format: biochemical, bovine
Details: for inhibition at 1 µM: compound at 10^−6 M, bovine FTase, 37° C., 30 minutes
Method in brief: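 Bovine brain FTase, partially purified by 30–50% saturated ammonium sulfate precipitation and DEAE Sepharose chromatography, separated from GGTase I/II. Scintillation proximity read-out of [3H]-FPP transfer to biotin-K-ras peptide, counted 1 h after quench. Compounds added from ethanol with 10-fold dilution into assay.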

T1 sequence (P49355 whole entry, one chain of several): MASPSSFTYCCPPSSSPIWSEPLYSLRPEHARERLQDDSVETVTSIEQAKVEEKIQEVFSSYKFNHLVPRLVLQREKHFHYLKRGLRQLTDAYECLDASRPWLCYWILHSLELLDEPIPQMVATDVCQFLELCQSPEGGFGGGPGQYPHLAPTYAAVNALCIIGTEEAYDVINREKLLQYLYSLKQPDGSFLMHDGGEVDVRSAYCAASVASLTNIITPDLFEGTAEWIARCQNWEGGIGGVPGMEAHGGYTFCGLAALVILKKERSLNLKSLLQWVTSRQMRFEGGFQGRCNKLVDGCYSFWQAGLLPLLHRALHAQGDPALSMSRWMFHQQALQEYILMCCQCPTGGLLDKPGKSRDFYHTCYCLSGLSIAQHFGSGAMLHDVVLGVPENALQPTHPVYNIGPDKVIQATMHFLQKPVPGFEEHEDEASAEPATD

SMILES	inhibition at 1 µM	% Inhibition at 10^−6M
COc1ccccc1-c1cc(C(OCc2ccccc2)c2cncn2C)ccc1C#N (centres unmarked) [Example 5, 5-((benzyloxy)(1-methyl-1H-imidazol-5-yl)methyl)-2′-methoxy(1,1′-biphenyl)-2-carbonitrile hydrochloride]	91%	
Cn1cncc1C(OCc1ccc(C(F)(F)F)cc1)c1ccc(C#N)c(-c2cccc3ccccc23)c1 (centres unmarked) [Example 65, 4-((1-methyl-1H-imidazol-5-yl)((4-(trifluoromethyl)benzyl)oxy)methyl)-2-(1-naphthyl)benzonitrile hydrochloride]	100%	
Cc1ccccc1-c1cc(C(OCc2cccc3cccnc23)c2cncn2C)ccc1C#N.Cl (centres unmarked) [Example 149]		93%
Cc1ccccc1-c1cc(C(OCc2cccc(Cl)c2)c2cncn2C)ccc1C#N (centres unmarked) [Example 120, 5-(((3-chlorobenzyl)oxy)(1-methyl-1H-imidazol-5-yl)methyl)-2′-methyl(1,1′-biphenyl)-2-carbonitrile hydrochloride]	90%	
Cn1cncc1C(OCc1ccc(C(F)(F)F)c(F)c1)c1ccc(C#N)c(-c2ccccc2C(F)(F)F)c1 (centres unmarked) [Example 249, 5-(((3-fluoro-4-(trifluoromethyl)benzyl)oxy)(1-methyl-1H-imidazol-5-yl)methyl)-2′-(trifluoromethyl)(1,1′-biphenyl)-2-carbonitrile hydrochloride]	98%	
Cc1ccccc1-c1cc(C(OCc2ccc(Cl)c(Cl)c2)c2cncn2C)ccc1C#N (centres unmarked) [Example 125, 5-(((3,4-dichlorobenzyl)oxy)(1-methyl-1H-imidazol-5-yl)methyl)-2′-methyl(1,1′-biphenyl)-2-carbonitrile hydrochloride]	97%	
CN(Cc1ccc(C#N)cc1)C(c1ccc(C#N)c(-c2cccc3ccccc23)c1)c1cncn1C (centres unmarked) [Example 29, 4-(((4-cyanobenzyl)(methyl)amino)(1-methyl-1H-imidazol-5-yl)methyl)-2-(1-naphthyl)benzonitrile]	100%	
Cc1ccccc1-c1cc(C(OCc2cccc(F)c2)c2cncn2C)ccc1C#N (centres unmarked) [Example 136, 5-(((3-fluorobenzyl)oxy)(1-methyl-1H-imidazol-5-yl)methyl)-2′-methyl(1,1′-biphenyl)-2-carbonitrile hydrochloride]	95%	
Cc1ccccc1-c1cc(C(NCC2CCCCC2)c2cncn2C)ccc1C#N (centres unmarked) [Example 24, 5-(((cyclohexylmethyl)amino)(1-methyl-1H-imidazol-5-yl)methyl)-2′-methyl(1,1′-biphenyl)-2-carbonitrile]	100%	
Cc1ccccc1-c1cc(C(OCc2cccc(Br)c2)c2cncn2C)ccc1C#N (centres unmarked) [Example 184, 5-(((3-bromobenzyl)oxy)(1-methyl-1H-imidazol-5-yl)methyl)-2′-methyl(1,1′-biphenyl)-2-carbonitrile hydrochloride]	95%	
Cc1ccccc1-c1cc(C(OCc2cccc(C(F)(F)F)c2)c2cncn2C)ccc1C#N.Cl (centres unmarked) [Example 123]		97%
Cc1ccccc1-c1cc(C(OCc2ccc(F)cc2)c2cncn2C)ccc1C#N (centres unmarked) [Example 118, 5-(((4-fluorobenzyl)oxy)(1-methyl-1H-imidazol-5-yl)methyl)-2′-methyl(1,1′-biphenyl)-2-carbonitrile hydrochloride]	90%	
Cn1cncc1C(OCc1cccc(Cl)c1)c1ccc(C#N)c(-c2cccc3ccccc23)c1 (centres unmarked) [Example 273, 4-((1-methyl-1H-imidazol-5-yl)((3-chlorobenzyl)oxy)methyl)-2-(1-naphthyl)benzonitrile hydrochloride]	100%	
Cn1cncc1C(NCc1ccc(C(N)=O)cc1)c1ccc(C#N)c(-c2cccc3ccccc23)c1 (centres unmarked) [Example 58, 4-((((4-cyano-3-(1-naphthyl)phenyl)(1-methyl-1H-imidazol-5-yl)methyl)amino)methyl)benzamide dihydrochloride]	100%	

— patent US20020019527A1 (priority 2000, published 2002)
